{"source": "patent US20160331794A1", "about": "“COMPOSITION FOR USE IN THE TREATMENT OF PERSISTENT COUGH” (ABOCA S.P.A SOCIETÁ AGRICOLA, priority 2013, published 2016)", "origin": "cited, not measured here", "key": {"[1]": {"tested_on": "cough", "conditions": "Lee et al. 2000; cited from earlier work"}, "[2]": {"tested_on": "night cough in children", "conditions": "Yoder et al. 2006; cited from earlier work"}}}
{"smiles": "COc1ccc2c(c1)[C@]13CCCC[C@@H]1[C@H](C2)N(C)CC3", "note": "[dextromethorphan]", "values": [{"measurement": "efficacy in the treatment of coughs versus placebo", "setting": "[1]", "result": "only marginally better than the placebo"}, {"measurement": "diminishing night cough in children versus placebo", "setting": "[2]", "result": "Neither dextromethorphan nor diphenhydramine have been found to be better than the placebo"}]}
{"smiles": "CN(C)CCOC(c1ccccc1)c1ccccc1", "note": "[diphenhydramine]", "values": [{"measurement": "diminishing night cough in children versus placebo", "setting": "[2]", "result": "Neither dextromethorphan nor diphenhydramine have been found to be better than the placebo"}]}
